Source: US9409906B2, “Pyrimido[4,5-B]indole derivatives and use thereof in the expansion of hematopoietic stem cells” (UNIVERSITÉ DE MONTRÉAL, priority 2012, dated 2016)
Each block holds one molecule with its values, some of them ahead of it.

Legend:
CD34+CD45RA− cells = test: Dose-response assay: 50% increase in CD34+CD45RA− cell count vs vehicle (EC50); format: cell-based, human; details: concentration giving 50% increase in CD34+CD45RA− cell count vs vehicle (DMSO), dose-response 1 nM to 5000 nM; for EC50: Homo sapiens, read-out: Biological data (EC50)*
Method: The following biological assays were used to assess the effect of the compounds of the invention on hematopoietic stem cell expansion. Culture medium: The culture medium used consisted of serum-free medium supplemented with the following recombinant cytokines: interleukin-6, thrombopoietin, Flt-3 ligand, and stem cell factor, each at a final concentration of 100 ng/ml, in the presence of vehicle (DMSO), positive control (SR1), or compound of the invention or a combination of compounds.

[1] = test system: CD34+ mPB cells transplanted in NSG mice; test: Engraftment of cultured CD34+ mPB cells in NSG mice; details: cells cultured ten days; outcome of 50,000 and 500,000 cells; 13 week post-transplantation
[2] = test system: CD34+CD45RA− cord blood cells; test: Ex vivo expansion of cord blood-derived CD34+ and CD34+CD45RA− cells (FIG. 5B, 5C); format: cell-based, human; details: cord blood
[3] = test system: CD34+ mobilized peripheral blood (mPB) cells; test: Ex vivo expansion of mobilized peripheral blood-derived CD34+ and CD34+CD45RA− cells (FIG. 5A); format: cell-based, human; details: 12-days culture
Excerpt: FIG. 5: A) Compound 1 expands mobilized peripheral blood-derived CD34+ and CD34+CD45RA− cell populations ex vivo. […] This observation was enhanced with the co-treatment with SR1.
[…]. The level of expansion is the same whether cultures are initiated with Compound 1, SR1, Compound 1+SR1, or control DMSO. […] […].

[4] = test system: CD34+ CB cells transplanted in NSG mice; test: Engraftment of cultured CD34+ cord blood cells in NSG mice (FIG. 7); details: outcome of 5,000 CD34+ CB cells, 7 days culture; 8-weeks post transplantation (FIG. 7A)
Excerpt: These experiments were done in short term cultures i.e. 7 days.

[5] = test system: CD34+ mobilized peripheral blood cells; test: FACS analysis of differentiation of CD34+ mobilized peripheral blood cells (FIG. 4A); format: cell-based, human; details: 7 day expansion, optimal levels, vs DMSO control
Excerpt: FIG. 4A illustrates the impact of Compound 1 on mobilized peripheral blood cell differentiation. Following a 7 day expansion, a relatively pure (>85% CD34^+) population of mobilized peripheral blood was exposed to control the (DMSO) or Compound 1 or SR1 or Compound 1+SR1.

[6] = test system: Mobilized peripheral blood CD34(+) cells; test: Growth factor (Flt3, SCF, TPO) requirement / mitogen test (FIG. 3); format: cell-based, human
Method: FIG. 3: Flt3, SCF, and TPO are required for compound 1 mediated stem cell expansion. Mobilized peripheral blood CD34(+) cells were cultured for 7 days in the presence or absence of the growth factors (Flt3+SCF+TPO).
This indicate that akin to SR1, Compound 1's effect on maintenance of primitive HSC phenotype ex vivo is not due to a mitogenic effect on this population but rather on the prevention of cell differentiation.

EC50 (CD34+CD45RA− cells): < 100 nM
SMILES: COC(=O)c1ccc2c(c1)[nH]c1nc(Cc3cccc(C(O)C(F)(F)F)c3)nc(NCCCN3CCCCC3)c12 (stereo not shown) [Compound 34, methyl 4-((3-(piperidin-1-yl)propyl)amino)-2-(3-(2,2,2-trifluoro-1-hydroxyethyl)benzyl)-9H-pyrimido[4,5-b]indole-7-carboxylate]

EC50 (CD34+CD45RA− cells): < 100 nM
SMILES: COC(=O)c1ccc2c(c1)[nH]c1nc(Cc3ccccc3)nc(NCCCN(C)CCCNc3nc(Cc4ccccc4)nc4[nH]c5cc(C(=O)OC)ccc5c34)c12 [Compound 51, dimethyl 4,4′-(((methylazanediyl)bis(propane-3,1-diyl))bis(azanediyl))bis(2-benzyl-9H-pyrimido[4,5-b]indole-7-carboxylate)]

SMILES: COC(=O)c1ccc2c(c1)[nH]c1nc(Cc3cccc(C4(C(F)(F)F)N=N4)c3)nc(NCCCN(C)CCCNC(=O)CCCC[C@@H]3SC[C@@H]4NC(=O)N[C@@H]43)c12 [Compound 53, methyl 4-((3-(methyl(3-(5-((3aS,4S,6aR)-2-oxohexahydro-1H-thieno[3,4-d]imidazol-4-yl)pentanamido)propyl)amino)propyl)amino)-2-(3-(3-(trifluoromethyl)-3H-diazirin-3-yl)benzyl)-9H-pyrimido[4,5-b]indole-7-carboxylate]
Biological data (EC50)* (CD34+CD45RA− cells): F (F=compound showed >1.3 fold expansion)

SMILES: CC(C)n1cnc2c(NCCc3ccc(O)cc3)nc(-c3csc4ccccc34)nc21 [SR1, StemRegenin1, reference compound]
human hematopoietic engraftment (human CD45+ cells in BM) [1]: consistently better than DMSO
expansion of CD34+CD45RA− cells ([2]; 12-days): less than 20 fold
total cell expansion vs DMSO (control) ([2]; twelve days): the same
total cell count increase above the input [3]: about 20 fold
human CD45+ engraftment / reconstitution activity [4]: human CD45+ engraftment
loss of CD34 cell surface expression [5]: partly abrogated
induction of cell proliferation in the absence of growth factors (Flt3, TPO, SCF) [6]: not able to induce cell proliferation
